Assays:
[1] = Phase I and II, cancer patients; cited from earlier work
[2] = Growth performance of three day old chicks fed diet with AS101 (body weight, feed intake, feed efficacy, liver weight, survival, histology); conditions: for increase in BW over Group 1: versus standard diet without selenium
Description: Each chick included in the study weighed exactly 80 g. via accurate electronic scale and each chick was marked. There were five different treatment groups, each group comprising ten chicks in four repetitions. The five groups of animals were tested as follows: Group 1 received a standard feeding diet without selenium; Group 2 received the standard feeding diet supplemented with 500 mg/metric ton of selenium; Group 3 received the same diet as Group 2 with the addition of AS101 at a concentration of 500 mg/metric ton; Group 4 received the same diet as Group 2 with the addition of AS101 at a concentration of 2,500 mg/metric ton; Group 5 received the same diet as Group 2 with the addition of AS101 at a concentration of 12,500 mg/ton. All the experiments were randomized and open. The results of each group represent the mean of 40 chicks. For growth period days 3-24, the performance of groups of three day old birds, fed AS101 concentrations of 500 mg/metric ton, 2,500 mg/metric ton or 12,500 mg/metric ton were compared to groups of control birds fed either a standard feeding diet without selenium or a standard feeding diet with an addition of […] selenium. Body weight (BW) was measured after 24 days. At the end of 24 days, the animals were examined for gross signs of toxicity. A gross visual examination was carried out. The liver of each chick was extracted and weighed.

[3] = intraruminal pellets selenium, dairy heifers; cited from earlier work
[4] = Treatment 3: AS101 500 mg/metric ton
[5] = Treatment 4: AS101 2,500 mg/metric ton
[6] = Treatment 4: AS101 2,500 mg/metric ton, control = Treatment 2
[7] = Treatment 5: AS101 12,500 mg/ton
[8] = Treatment 5: AS101 12,500 mg/ton, control = Treatment 2
[9] = Treatment 2: selenium supplemented diet, no AS101

Cl[TeH]1(Cl)(Cl)OCCO1 [AS101, ammonium trichloro(dioxyethylene-O,O′)tellurate]
toxicity in clinical trials [1]: non-toxic
change in BW (significance) ([2]; 12.5 g/ton AS101): significant increase in BW
BW increase ([2]; AS101 500 mg/ton added to mixture that includes selenium): 1.7%
BW increase ([2]; AS101 2,500 mg/ton added to mixture that includes selenium): 2.3%
BW increase ([2]; AS101 12,500 mg/ton added to mixture that includes selenium): 5%
increase in BW over Group 1 ([2]; Group 5, highest level of tellurium): 5.4%
FEED EFFICACY [2, 4]: 0.731 g/g
FEED INTAKE [2, 4]: 1382 g
FE, % OF CONTROL ([2]; Treatment 3: AS101 500 mg/metric ton, control = Treatment 2): 103.5%
BW, % OF CONTROL ([2]; Treatment 3: AS101 500 mg/metric ton, control = Treatment 2 (selenium diet)): 101.7%
BW-24D ([2]; Treatment 3: standard diet + selenium 500 mg/metric ton + AS101 500 mg/metric ton, mean of 40 chicks): 1090 g
FEED EFFICACY [2, 5]: 0.74 g/g
FEED INTAKE [2, 5]: 1375 g
BW, % OF CONTROL [2, 6]: 102.3%
FE, % OF CONTROL [2, 6]: 104.8%
BW-24D ([2]; Treatment 4: standard diet + selenium + AS101 2,500 mg/metric ton, mean of 40 chicks): 1097 g
FEED EFFICACY [2, 7]: 0.738 g/g
FEED INTAKE [2, 7]: 1417 g
BW, % OF CONTROL [2, 8]: 105%
FE, % OF CONTROL [2, 8]: 104.5%
BW-24D ([2]; Treatment 5: standard diet + selenium + AS101 12,500 mg/ton, mean of 40 chicks): 1126 g
survival rate ([2]; all groups, no mortalities): 100%
increase of growth rate of young chicks ([2]; diet with at least 0.5 gm selenium per metric ton + 12.5 gm tellurium compound per metric ton, by day 21): up to 5%
food intake altered by feeding with AS101 ([2]; in vivo): not altered
histological studies ([2]; in vivo): No pathological changes were observed

[Se] [selenium, reference compound]
weight gains over control [3]: 0.11 to 0.12 kg/day
increase in BW over Group 1 ([2]; Group 2, addition of 300 mg/ton of selenium): 0.4%
FEED EFFICACY [2, 9]: 0.706 g/g
FEED INTAKE [2, 9]: 1405 g
LIVER, % OF BW [2, 9]: 2.32%
BW-24D ([2]; Treatment 2: standard diet supplemented with 500 mg/metric ton of selenium, no AS101): 1072 g

— patent publication US20030113409A1, “Tellurium containing nutrient formulation and process for enhancing the cumulative weight gain or feed efficacy in poultry” (priority 2001, published 2003)
